From patent US11400088B2, “Uses of compound in preparation of drugs for treating brain glioma” (BEIJING PEARL BIOTECHNOLOGY LIMITED LIABILITY COMPANY, priority 2015, dated 2022)

system: PCDH-blank expressing cells (U87); experiment: MTT inhibition of glioblastoma cell proliferation, blank reference cells; type: cell-based; conditions: Homo sapiens, U-87 MG, 72 hours, read-out: Inhibitory activities (IC50, μM) of tested compounds on cells
From the text: (§1) First, a lentiviral vector PCDH (PCDH-EF1-MCS-T2A-Puro, SBI, product No.: CD510B-1, structure shown in FIG. 4) was used, and the nucleotide sequence as shown by SEQ ID NO: 7 or SEQ ID NO: 8 was cloned into the vector according to the instructions thereof, to prepare expression vectors which expressed fusion proteins respectively represented by SEQ ID NO: 3 and SEQ ID NO: 4. The expression vectors were respectively named and marked as “PCDH-ZM1-2” and “PCDH-ZM2-2”. Then, a viral packaging plasmid (SBI, product No. LV500A-1) was used to co-infect 293T cells with one of the vectors to prepare a lentivirus. The same method was performed to package the lentiviral vector PCDH and co-infect 293T cells, to prepare a lentivirus with the blank vector, which was named as “PCDH-blank”.
(§2) The U87 cells were infected with any of the lentiviruses as prepared above and screened by applying puromycin (0.5 μg/mL for screening, and 0.2 μg/mL for maintenance) to establish cell models which stably expressed the fusion proteins. The cell models were verified for the expression of the fusion proteins and the transcription of the fusion genes by immunoblotting and reverse transcription PCR, and cell lines which stably expressed fusion proteins ZM1-2 and ZM2-2 respectively were obtained finally and named as “PCDH-ZM1-2 expressing cells” and “PCDH-ZM2-2 expressing cells” respectively. Similarly, U87 cells were infected with the lentivirus PCDH-blank with the blank vector to obtain “PCDH-blank expressing cells” as a blank reference.
(§3) Those U87 cells which were cultured in a large dish and were in a logarithmic stage were washed once with sterile PBS, and then digested with 0.25% trypsin for 2 min. After all cells were digested to detach, complete DMEM medium containing 10% fetal bovine serum (FBS) was used to stop the digestion. The cells were counted and the cell concentration was adjusted to 20,000 cells/ml. Then, the cells were seeded into a Corning 96-well plate (2,000 cells/well) using a multi-channel pipette, and incubated in a 5% CO2 incubator at 37° C. for 24 hours. The compounds to be tested (crizotinib and the compounds represented by formulas A to H) were respectively dissolved in DMSO to prepare stock solutions, and then the stock solutions and the complete medium were used to prepare solutions with different concentrations of medicaments (0, 5, 10, 20, 40, 60, 80, 100 μM). The cells were incubated in the incubator for additional 72 hours, and then 20 μl of 3-(4,5-dimethylthiazole-2)-2,5-diphenyl tetrazolium bromide (MTT) was added into each well. After 1-3 hours in the incubator, the absorbance at 490 nm was determined using a microplate reader. The inhibition rate corresponding to each concentration was calculated, and the value of IC50 was calculated with GraphPad software.

| SMILES | IC50 [µM] |
| --- | --- |
| C[C@@H](Oc1cc(-c2cnn(C3CCNCC3)c2)cnc1N)c1c(Cl)ccc(F)c1Cl [Crizotinib] | 3.27 |
| Cn1cc2cc(C(F)(F)c3nnc4ccc(-c5cnn(C6CC6)c5)nn34)c(F)cc2n1 [Formula A] | 2.85 |
| CNC(=O)c1c(F)cc(-c2ccc3nnc(C(F)(F)c4cc5cn(C)nc5cc4F)n3n2)cc1F [Formula B] | 6.02 |
| Cn1cc2cc(C(F)(F)c3nnc4ccc(-c5ccc(NC(=O)C6CC6)c(F)c5)nn34)c(F)cc2n1 [Formula C] | 5.79 |
| Cn1cc(-c2ccc3nnc(C(F)(F)c4cc5cn(C)nc5cc4F)n3n2)cn1 [Formula D] | 4.93 |
| CC(C)n1cc(-c2ccc3nnc(C(F)(F)c4cc5cn(C)nc5cc4F)n3n2)cn1 [Formula E] | 21.6 |
| Cn1cc2cc(C(F)(F)c3nnc4ccc(-c5cnn(C6CC6)c5)cn34)c(F)cc2n1 [Formula F] | 58.8 |
| Cn1cc2cc(C(F)(F)c3nnc4ncc(-c5cnn(C6CC6)c5)cn34)c(F)cc2n1 [Formula G] | 9.25 |
| Nc1nc2cc(F)c(Cc3nnc4ccc(-c5cnn(C6CC6)c5)nn34)cc2s1 [Formula H] | 19.4 |

system: PCDH-ZM2-2 expressing cells (U87); experiment: MTT inhibition of glioblastoma cell proliferation, ZM2-2 fusion protein expressing cells; type: cell-based; conditions: Homo sapiens, 72 hours, read-out: Inhibitory activities (IC50, μM) of tested compounds on cells
From the text: as §1, §2, §3

| SMILES | IC50 [µM] |
| --- | --- |
| C[C@@H](Oc1cc(-c2cnn(C3CCNCC3)c2)cnc1N)c1c(Cl)ccc(F)c1Cl [Crizotinib] | 9.76 |
| Cn1cc2cc(C(F)(F)c3nnc4ccc(-c5cnn(C6CC6)c5)nn34)c(F)cc2n1 [Formula A] | 1.83 |
| CNC(=O)c1c(F)cc(-c2ccc3nnc(C(F)(F)c4cc5cn(C)nc5cc4F)n3n2)cc1F [Formula B] | 5.59 |
| Cn1cc2cc(C(F)(F)c3nnc4ccc(-c5ccc(NC(=O)C6CC6)c(F)c5)nn34)c(F)cc2n1 [Formula C] | 12.8 |
| Cn1cc(-c2ccc3nnc(C(F)(F)c4cc5cn(C)nc5cc4F)n3n2)cn1 [Formula D] | 7.21 |
| CC(C)n1cc(-c2ccc3nnc(C(F)(F)c4cc5cn(C)nc5cc4F)n3n2)cn1 [Formula E] | 21.9 |
| Cn1cc2cc(C(F)(F)c3nnc4ccc(-c5cnn(C6CC6)c5)cn34)c(F)cc2n1 [Formula F] | 125 |
| Cn1cc2cc(C(F)(F)c3nnc4ncc(-c5cnn(C6CC6)c5)cn34)c(F)cc2n1 [Formula G] | 15.2 |
| Nc1nc2cc(F)c(Cc3nnc4ccc(-c5cnn(C6CC6)c5)nn34)cc2s1 [Formula H] | 45.1 |

system: PCDH-ZM2-2 expressing cells; experiment: Intracranial tumor model, survival and brain MRI, ZM2-2 mice (2); type: in vivo, nude mice; conditions: 50 mg/KG weight/day stopped on 16th day, imaged 10th day after withdrawal, panel 7D
Procedure: (§4) First, a tumor-bearing mouse model was established. “PCDH-blank expressing cells” and “PCDH-ZM2-2 expressing cells” prepared in Example 4 were prepared into suspensions of 10^5 cells/5 μl with PBS respectively. Nude mice sterilized with 75% ethanol were inoculated with […] the cell suspensions. The cell inoculation position (2 mm away on the right side of anterior fontanel, and 2 mm backward) was determined using a brain stereotaxic apparatus for mouse; the injection depth was 3.5 mm and then elevated by 0.6 mm; and 5 μl of cell solutions respectively was injected to each mouse. After injection, the mice were kept still for 1 min, and then received a conventional skin closure. After intracranial tumors were observed, the tumor-bearing mice obtained with the “PCDH-blank expressing cells” were named as “vector mice (2)”, and the tumor-bearing mice obtained with the “PCDH-ZM2-2 expressing cells” were named as “ZM2-2 mice (2)”.
(§5) 8 Vector mice (2) and 8 ZM2-2 mice (2) were respectively administered with the compound represented by the formula A at a dose of 50 mg/KG weight/day. The compound was administrated once a day by gavage. At the same time, another group of 8 ZM2-2 mice (2) were given with normal saline, as a control group. The experiment lasted for over 6 weeks.
The brains of ZM2-2 mice (2) given with the compound represented by formula A were detected by nuclear magnetic resonance imaging on the 16th day after the compound represented by formula A was administered for the first time. […] See results in panel 7C.
Another 8 ZM2-2 mice (2) were also administered with the compound represented by formula A at a dose of 50 mg/KG weight/day. The compound was administrated once a day by gavage. Then, the compound administration was stopped on the 16th day after the first administration, and the brains were detected through nuclear magnetic resonance imaging on the 10th day after the compound withdrawal. […] Results are shown in panel 7D.

| SMILES | intracranial tumor growth after compound withdrawal by nuclear magnetic resonance imaging |
| --- | --- |
| Cn1cc2cc(C(F)(F)c3nnc4ccc(-c5cnn(C6CC6)c5)nn34)c(F)cc2n1 [Formula A] | resumed rapid growth |

same assay, conditions: 50 mg/KG weight/day, 16th day after first administration, panel 7C

| SMILES | intracranial tumor size by nuclear magnetic resonance imaging |
| --- | --- |
| Cn1cc2cc(C(F)(F)c3nnc4ccc(-c5cnn(C6CC6)c5)nn34)c(F)cc2n1 [Formula A] | obviously became smaller |

same assay, conditions: intracranial, 50 mg/KG weight/day by gavage, over 6 weeks, FIG. 6

| SMILES | survival time of mice |
| --- | --- |
| Cn1cc2cc(C(F)(F)c3nnc4ccc(-c5cnn(C6CC6)c5)nn34)c(F)cc2n1 [Formula A] | obviously prolonged the survival time |

system: PCDH-ZM1-2 expressing cells (U87); experiment: MTT inhibition of glioblastoma cell proliferation, ZM1-2 fusion protein expressing cells; type: cell-based; conditions: Homo sapiens, 72 hours, read-out: Inhibitory activities (IC50, μM) of tested compounds on cells
From the text: as §1, §2, §3

| SMILES | IC50 [µM] |
| --- | --- |
| C[C@@H](Oc1cc(-c2cnn(C3CCNCC3)c2)cnc1N)c1c(Cl)ccc(F)c1Cl [Crizotinib] | 8.26 |
| Cn1cc2cc(C(F)(F)c3nnc4ccc(-c5cnn(C6CC6)c5)nn34)c(F)cc2n1 [Formula A] | 1.34 |
| CNC(=O)c1c(F)cc(-c2ccc3nnc(C(F)(F)c4cc5cn(C)nc5cc4F)n3n2)cc1F [Formula B] | 7.63 |
| Cn1cc2cc(C(F)(F)c3nnc4ccc(-c5ccc(NC(=O)C6CC6)c(F)c5)nn34)c(F)cc2n1 [Formula C] | 9.45 |
| Cn1cc(-c2ccc3nnc(C(F)(F)c4cc5cn(C)nc5cc4F)n3n2)cn1 [Formula D] | 5.22 |
| CC(C)n1cc(-c2ccc3nnc(C(F)(F)c4cc5cn(C)nc5cc4F)n3n2)cn1 [Formula E] | 32.6 |
| Cn1cc2cc(C(F)(F)c3nnc4ccc(-c5cnn(C6CC6)c5)cn34)c(F)cc2n1 [Formula F] | 90.3 |
| Cn1cc2cc(C(F)(F)c3nnc4ncc(-c5cnn(C6CC6)c5)cn34)c(F)cc2n1 [Formula G] | 6.75 |
| Nc1nc2cc(F)c(Cc3nnc4ccc(-c5cnn(C6CC6)c5)nn34)cc2s1 [Formula H] | 23.3 |

system: human glioma cell line U87; experiment: MTT inhibition of glioblastoma cell proliferation, U87 initial cells; type: cell-based; conditions: 72 hours, read-out: Inhibitory activities (IC50, μM) of tested compounds on cells
Procedure: The compound represented by formula A and crizotinib as well as compounds represented by formulas B to H that respectively have a structure similar to the structure of formula A were employed to carry out the experiment of testing the activity of inhibiting glioblastoma cell proliferation.
as §2, §3

| SMILES | IC50 [µM] |
| --- | --- |
| C[C@@H](Oc1cc(-c2cnn(C3CCNCC3)c2)cnc1N)c1c(Cl)ccc(F)c1Cl [Crizotinib] | 2.99 |
| Cn1cc2cc(C(F)(F)c3nnc4ccc(-c5cnn(C6CC6)c5)nn34)c(F)cc2n1 [Formula A] | 3.51 |
| CNC(=O)c1c(F)cc(-c2ccc3nnc(C(F)(F)c4cc5cn(C)nc5cc4F)n3n2)cc1F [Formula B] | 8.15 |
| Cn1cc2cc(C(F)(F)c3nnc4ccc(-c5ccc(NC(=O)C6CC6)c(F)c5)nn34)c(F)cc2n1 [Formula C] | 4.78 |
| Cn1cc(-c2ccc3nnc(C(F)(F)c4cc5cn(C)nc5cc4F)n3n2)cn1 [Formula D] | 5.56 |
| CC(C)n1cc(-c2ccc3nnc(C(F)(F)c4cc5cn(C)nc5cc4F)n3n2)cn1 [Formula E] | 17.2 |
| Cn1cc2cc(C(F)(F)c3nnc4ccc(-c5cnn(C6CC6)c5)cn34)c(F)cc2n1 [Formula F] | 64.4 |
| Cn1cc2cc(C(F)(F)c3nnc4ncc(-c5cnn(C6CC6)c5)cn34)c(F)cc2n1 [Formula G] | 9.07 |
| Nc1nc2cc(F)c(Cc3nnc4ccc(-c5cnn(C6CC6)c5)nn34)cc2s1 [Formula H] | 25.4 |

system: PCDH-blank expressing cells; experiment: Intracranial tumor model, survival, vector mice (2); type: in vivo, nude mice; conditions: 50 mg/KG weight/day by gavage, over 6 weeks, FIG. 6
Procedure: as §4, §5

| SMILES | survival of mice |
| --- | --- |
| Cn1cc2cc(C(F)(F)c3nnc4ccc(-c5cnn(C6CC6)c5)nn34)c(F)cc2n1 [Formula A] | all survived |

system: PCDH-ZM2-2 expressing cells; experiment: Inhibition of subcutaneous tumor growth in ZM2-2 mice (1); type: in vivo, BALB/c (nu/nu) nude mice; conditions: 10 mg/KG/day by gavage, vs normal saline, FIG. 5
Procedure: First, a tumor-bearing mouse model was established. BALB/c (nu/nu) maternal nude mice, aged 6-8 weeks, with a weight of about 16-18 g were purchased from Vital River. “PCDH-blank expressing cells” and “PCDH-ZM2-2 expressing cells” prepared in Example 4 were prepared into suspensions of 10^7 cells/ml with PBS respectively. Nude mice sterilized with 75% ethanol were subcutaneously injected with 100 μl of the cell suspensions at the right scapular area, in which the PCDH-blank expressing cells were injected into seven nude mice, and PCDH-ZM2-2 expressing cells were injected into 21 nude mice. […] The tumor size and variations in mouse weight were measured twice a week. […]
When the tumors grew to have a volume of about 100 mm^3, the ZM2-2 mice (1) were divided into three groups according to mean tumor size, including a group of 7 mice which were administered with the compound represented by formula A, a group of 7 mice which were administered with crizotinib, and a control group of 7 mice. […] The tumor size and variations in mouse weight were measured twice a week. The tumor diameter was measured with a vernier caliper, and the equation for calculating tumor volume was: tumor volume=0.5*Length*Width^2.

| SMILES | growth of tumors (tumor volume) |
| --- | --- |
| Cn1cc2cc(C(F)(F)c3nnc4ccc(-c5cnn(C6CC6)c5)nn34)c(F)cc2n1 [Formula A] | significantly inhibit the growth of tumors |
